Experiments:
cytochrome bc1 complex = target: T1, cytochrome bc1 complex (Homo sapiens, UniProt P00156+P22695+P31930); test: BP12-34 pull-down, cytochrome bc1 complex; assay type: binding; details: BP12-34 0.25 or 0.5 µM pull-down, A549 cell lysates
T1 construct: endogenous in cells; host or cells: A549 cell lysate
Method: (§1) Supplementary figure 4. P12-34 interacts with cytochrome bc1 complex. Cell lysates of A549 were treated with 0.25 μM (+) or 0.5 μM (++) BP12-34 at 4 ℃ for 1 h, then incubated with streptavidin (SA) beads at 4 ℃ for 30 min. Non-specific binding was removed by washing with PBS. After precipitation, P12-34-associated proteins were analyzed by western blot with the indicated antibodies against DHODH and cytochrome bc1 complex.

[1] = system: DENV-2 (mouse-adaptive NGC strain); test: DENV challenge of Stat1-/- mice; assay type: in vivo
Method: Animal studies followed the guidelines of the Academia Sinica Institutional Animal Care and Use Committee. Five-week-old Stat1^−/− mice were subcutaneously challenged with 1 × 10^5 plaque-forming units (PFU) of DENV-2 (mouse-adaptive NGC strain)[29]. P12-34 (2.5 mg/kg per day in 500 µl PBS containing 10% DMSO) or vehicle control was intraperitoneally injected into DENV-2-infected mice for the first 6 days. At 1, 3, 5 and 7 days post-inoculation (dpi), the viral loads in sera were determined by RT-qPCR as previously described.

DENV-2 = test: Viral RNA replication assay (RT-qPCR); assay type: cell-based, dengue virus; details: 1 µM added at 1 hpi versus 2′CMA 20 µM, A549 cells, DENV-2 MOI 5
Method: Viral infection (MOI 5) and drug treatment were performed as described for the virus translation assay. Cells were harvested for real-time RT-PCR analysis after removing the cell-free viruses at 1, 2, 3, 6, 9, 12, 18, and 27 hpi. Viral RNA was quantified and normalized with actin RNA as described for the virus binding assay.

wild-type DENV (DENV1-4) = test: High-content image analysis, all four serotypes of wild-type DENV in A549 cells; assay type: cell-based; details: Dengue virus, DENV1, A549, read-out: IC50 range over the four serotypes
Method: (§2) Approximately 50% of confluent cells seeded in 96-well plates were infected with viruses in the presence of drugs or DMSO as a solvent control. At 24 h post-infection (hpi), cells were fixed with 4% paraformaldehyde at room temperature (RT) for 20 min, permeated with a 0.5% Triton X-100 buffer for 2 min, and blocked with 3% BSA for 30 min. Nuclei were stained with DAPI (Sigma) at RT for 20 min. Viral NS3 was stained with a mouse anti-NS3 monoclonal antibody (mAb)[47] followed by staining with an Alexa Fluor 488-conjugated goat anti-mouse IgG antibody (ThermoFisher) at RT for 1 h. Nine images from different fields per well were acquired and analyzed using an ImageXpress Micro XLS Widefield High-Content Analysis System (Molecular Devices, Sunnyvale, USA). To quantify viral infection, the fluorescence intensities of viral NS3 or eGFP from the reporter virus were measured using MetaXpress® (Molecular Devices, Sunnyvale, USA) and were calculated with a mock control (infection as 0%) and a DMSO solvent control (infection as 100%).

DENV-1 = test: High-content image analysis of DENV-1 infection (NS3) in A549 cells; assay type: cell-based, dengue virus
Method: as §2

DHODH = target: T2, DHODH (Homo sapiens, UniProt Q02127); test: BP12-34 pull-down, DHODH; assay type: binding; details: BP12-34 0.25 or 0.5 µM pull-down, A549 cell lysates
T2 construct: endogenous in cells; host or cells: A549 cell lysate
T2 sequence (Q02127 whole entry): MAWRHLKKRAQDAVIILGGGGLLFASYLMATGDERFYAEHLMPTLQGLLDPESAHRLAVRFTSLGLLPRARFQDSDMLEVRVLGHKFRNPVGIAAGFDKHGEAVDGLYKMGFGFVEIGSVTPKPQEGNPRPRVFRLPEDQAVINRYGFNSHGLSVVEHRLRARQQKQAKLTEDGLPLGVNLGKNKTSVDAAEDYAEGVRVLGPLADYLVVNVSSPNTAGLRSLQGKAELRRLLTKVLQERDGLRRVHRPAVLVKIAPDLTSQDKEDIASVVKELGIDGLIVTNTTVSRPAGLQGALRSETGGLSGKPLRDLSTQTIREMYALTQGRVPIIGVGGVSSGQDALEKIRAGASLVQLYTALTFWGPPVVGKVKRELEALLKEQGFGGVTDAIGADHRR
Method: as §1

DENV-3 = test: High-content image analysis of DENV-3 infection (NS3) in A549 cells; assay type: cell-based, dengue virus
Method: as §2

[2] = LDH release cytotoxicity assay; assay type: cell-based, human; details: human, A549 cells
Method: (§3) Cells were treated with compounds at the indicated concentrations for 24 h. The release of lactate dehydrogenase (LDH) was measured using a Cytotoxicity Detection Kit (Roche, Basel, Switzerland) after removing cell debris. Cells treated with 1% Triton X-100 were used to determine the maximal LDH release.

A549 cells = test: LDH release cytotoxicity assay; assay type: cell-based, human; details: 24 h
Method: as §3

N[C@@H](Cc1ccccc1)C(=O)Nc1ccc(-n2cc(C(F)(F)F)cc2-c2ccc3c(ccc4ccccc43)c2)cc1 [P12-34]
binding to cytochrome bc1 complex (cytochrome bc1 complex): bind cytochrome bc1 complex in a dose-dependent manner
mice alive at 39 dpi ([1]; Stat1-/- mice, subcutaneous DENV-2 challenge, 2.5 mg/kg per day i.p. for first 6 days, n = 5): 60%
viral genome copy numbers in sera ([1]; Stat1-/- mice, subcutaneous DENV-2 challenge, 2.5 mg/kg per day i.p., especially at 3 dpi): significantly reduced
protection against DENV challenge injected intraperitoneally ([1]; virus injected intraperitoneally, data not shown): did not protect mice
suppression of intracellular viral RNA replication (DENV-2): more potent than 2′CMA
IC50 (wild-type DENV (DENV1-4)): 62 to 98 nM
SI (CC50/IC50) (DENV-1; DENV-1, A549 cells): 206.3 ± 3.5
IC50 (DENV-1; Dengue virus, DENV1, A549, 24 h): 98 ± 1.7 nM
interaction with DHODH (DHODH): did not appear to interact with DHODH
SI (CC50/IC50) (DENV-3; DENV-3, A549 cells): 223.4 ± 8.6
IC50 (DENV-3; Dengue virus, DENV3, A549, 24 h): 90.6 ± 3.4 nM
CC50 at 24 h [2]: ~20000 nM
CC50 (A549 cells; A549 cells): 20300 ± 200 nM
noncytotoxic concentrations (A549 cells; human A549 cells): ≤ 12.5 µM
